# From patent US6441028B2, “Microbicidal compositions” (Bayer Aktiengesellschaft, priority 1995, dated 2002)
# Columns and labels:
# [1] = tested on: Puccinia recondita; test: Activity against Puccinia recondita in wheat (residual-protective and systemic action); type: in vivo; conditions: mixture of the labelled component I with component II; wheat; a) spray 0.02% of active ingredient, b) 0.006% based on soil volume; assessed 12 days after infection
# [2] = tested on: Erysiphe graminis; test: Activity against Erysiphe graminis in barley (residual-protective and systemic action); type: in vivo; conditions: mixture of the labelled component I with component II; barley; a) spray 0.02% of active ingredient, b) 0.002% based on soil volume; assessed 12 days after infection
# Description: The infected plants are placed in a greenhouse at 22°. The fungus infestation is assessed 12 days after the infection. […] 48 hours later, the plants are dusted with conidia of the fungus. The infected plants are placed in a greenhouse at 22°. The fungus infestation is assessed 12 days after the infection.
# [3] = tested on: Fusarium nivale; test: Activity against Fusarium nivale in rye (seed dressing, field); type: in vivo; conditions: mixture of the labelled component I with component II, rye cv. Tetrahell seed dressing, 20 or 6 ppm of a.i. based on seed weight
# Description: which has been infected naturally with Fusarium nivale is dressed with the test fungicide in a roller mixer, the following concentrations being used: 20 or 6 ppm of a.i. (based on the seed weight). The infected and treated rye is sown in the open in October in plots of 3 m length and 6 seed rows, using a seed drill. 3 replications per concentration. Until the disease level is evaluated, the experimental field is subjected to the field conditions of normal crop management (preferably in a region with unbroken snow cover during the winter months). To assess the phytotoxicity, seedling emergence is scored in autumn and plant density/tillering in spring. To assess the activity of the active ingredient, the percentage of Fusarium-infected plants is evaluated early in the year, immediately after the snows have melted.
# [4] = tested on: Phytophthora; conditions: mixture of the labelled component I, in particular in combination with metalaxyl (II A), benalaxyl (II D) or R-metalaxyl (II B); potato (Bintje); a) spray 0.02% of active ingredient, b) 0.002% based on soil volume; 5 days incubation
# Description: 2-3 week old potato plants (Bintje variety) are grown for 3 weeks and then sprayed with a spray mixture (0.02% of active ingredient) prepared with a wettable powder of the active ingredient. After 24 hours, the treated plants are infected with a sporangia suspension of the fungus. The fungus infestation is assessed after the infected plants have been incubated for 5 days at a relative atmospheric humidity of 90-100% and 20° C.
# A spray mixture (0.002% of active ingredient based on the soil volume) prepared with a wettable powder of the active ingredient is poured next to 2-3 week old potato plants (Bintje variety) which have been grown for 3 weeks. […] After 48 hours, the treated plants are infected with a sporangia suspension of the fungus. Fungus infestation is assessed after the infected plants have been incubated for 5 days at a relative atmospheric humidity of 90-100% and 20° C.
# [5] = tested on: Plasmopara viticola; test: Activity against Plasmopara viticola in grapevines; conditions: mixture of the labelled component I with component II = ofurace (II E), oxadixyl (II F), or in particular metalaxyl (II A) or R-metalaxyl (II B); grapevine seedlings; 0.02% of active ingredient; assessed 6 days after infection
# Description: Grapevine seedlings at the 4-to-5-leaf stage are sprayed to drip point with an aqueous spray mixture prepared with a wettable powder of the active ingredient mixture (0.02% of active ingredient) and, 24 hours later, infected with a sporangia suspension of the fungus. The fungus infestation is assessed 6 days after infection, during which time a relative atmospheric humidity of 95 to 100% and a temperature of 20° are maintained.
# [6] = tested on: Botrytis cinerea; test: Activity against Botrytis cinerea on apple fruits (residual-protective action); type: in vivo; conditions: mixture of the labelled component I with component II = furalaxyl (II C), metalaxyl (II A) or R-metalaxyl (II B); damaged apples; 0.02% of active ingredient; one week incubation
# Description: The treated fruits are subsequently inoculated with a spore suspension of the fungus and incubated for one week at high atmospheric humidity and approximately 20° C. The fungicidal activity of the test substance is deduced from the number of the sites of damage where rotting has been observed.
# [7] = tested on: Phytophthora infestans; type: in vivo; conditions: mixture of the labelled component I with component II = oxadixyl (II F), ofurace (II E), or in particular metalaxyl (II A) or R-metalaxyl (II B); tomato cv. Roter Gnom; a) curative 200 ppm, b) preventive-systemic 60 ppm relative to soil volume
# [8] = tested on: Cercospora arachidicola; test: Residual-protective action against Cercospora arachidicola in groundnuts; type: in vivo; conditions: mixture of the labelled component I with component II; groundnut plants; 0.02% of active ingredient; assessed 12 days after infection
# Description: The plants are incubated for 72 hours at 21° and high atmospheric humidity and subsequently placed in a greenhouse until the typical foliar lesions appear. The activity of the active ingredient is assessed 12 days after the infection on the basis of number and size of the foliar lesions.
# [9] = tested on: Septoria nodorum; test: Activity against Septoria nodorum in wheat; type: in vivo; conditions: mixture of the labelled component I with component II; wheat 3-leaf stage; 60 ppm of a.i.; assessed 13 days after infection
# Description: 13 days after the infection, the fungus infestation is assessed.
Compound,synergistic effect of active ingredient mixture (fungus infestation) [1],synergistic effect of active ingredient mixture (fungus infestation) [2],synergistic effect of active ingredient mixture (percentage of Fusarium-infected plants) [3],synergistic effect of active ingredient mixture (fungus infestation) [4],synergistic effect of active ingredient mixture (fungus infestation) [5],activity of active ingredient mixture (number of sites of damage with rotting) [6],synergistic effect of active ingredient mixture (number and size of foliar lesions) [7],activity of active ingredient mixture (number and size of foliar lesions) [8],activity of active ingredient mixture (fungus infestation) [9]
"CON=C(C(=O)OC)c1ccccc1CON=C(C)c1ccc2c(c1)OC(F)(F)O2 [(6), methyl 2-[α-{[(α-methyl-3,4-(difluoromethylenedioxy)benzyl)imino]-oxy}-o-tolyl]glyoxylate O-methyloxime]",good synergistic effect,good synergistic effect,good synergistic effect,good synergistic effect,marked synergistic effect,,,,
"CON=C(C(=O)OC)c1ccccc1CON=C(c1ccc(F)cc1)C1CC1 [(09), methyl 2-[α-{[(α-cyclopropyl-4-fluorobenzyl)imino]oxy}-o-tolyl]glyoxylate O-methyloxime]",good synergistic effect,good synergistic effect,,,,markedly increased activity,,,
"COC=C(C(=O)OC)c1ccccc1CON=C(C)c1ccc2c(c1)OCO2 [(12), methyl 3-methoxy-2-[α-{[(α-methyl-3,4-methylenedioxybenzyl)imino]oxy}-o-tolyl]acrylate]",,,,good synergistic effect,marked synergistic effect,,good synergistic effect,,
"CON=C(C(=O)OC)c1ccccc1CON=C(c1ccc(Cl)cc1)C1CC1 [(15), methyl 2-[α-{[(α-cyclopropyl-4-chlorobenzyl)imino]oxy}-o-tolyl]glyoxylate O-methyloxime]",good synergistic effect,good synergistic effect,,good synergistic effect,marked synergistic effect,markedly increased activity,good synergistic effect,markedly increased activity,
"COC=C(C(=O)OC)c1ccccc1CON=C(C)c1cccc(OC(F)(F)F)c1 [(18), methyl 3-methoxy-2-[α-{[(α-methyl-3-trifluoromethoxybenzyl)imino]oxy}-o-tolyl]acrylate]",good synergistic effect,good synergistic effect,good synergistic effect,good synergistic effect,marked synergistic effect,markedly increased activity,,markedly increased activity,
"COC=C(C(=O)OC)c1ccccc1CON=C(C)c1cccc(C(F)(F)F)c1 [(24), methyl 3-methoxy-2-[α-{[(α-methyl-3-trifluoromethylbenzyl)imino]oxy}-o-tolyl]acrylate]",,good synergistic effect,,good synergistic effect,,markedly increased activity,good synergistic effect,markedly increased activity,markedly increased activity
"CON=C(C(=O)OC)c1ccccc1CON=C(C)c1ccc(Cl)cc1 [(25), methyl 2-[α-{[(α-methyl-4-chlorobenzyl)imino]oxy}-o-tolyl]glyoxylate O-methyloxime]",,good synergistic effect,,,,,,,markedly increased activity
"COC=C(C(=O)OC)c1ccccc1CON=C(C)c1ccc(Cl)cc1 [(26), methyl 3-methoxy-2-[α-{[(α-methyl-4-chlorobenzyl)imino]oxy}-o-tolyl]acrylate]",,,good synergistic effect,,,,,markedly increased activity,
"COC=C(C(=O)OC)c1ccccc1CON=C(C)c1ccc2c(c1)OC(F)(F)O2 [(29), methyl 3-methoxy-2-[α-{[(α-methyl-3,4-(difluoromethylenedioxy)benzyl)-imino]oxy}-o-tolyl]acrylate]",good synergistic effect,,,,,,,,
"CON=C(C(=O)OC)c1ccccc1CON=C(C)c1cccc(OC(F)(F)F)c1 [(32), methyl 2-[α-{[(α-methyl-3-trifluoromethoxybenzyl)imino]oxy}-o-tolyl]glyoxylate O-methyloxime]",good synergistic effect,good synergistic effect,good synergistic effect,good synergistic effect,marked synergistic effect,markedly increased activity,good synergistic effect,markedly increased activity,markedly increased activity
"CON=C(C(=O)OC)c1ccccc1CON=C(C)c1cccc(C(F)(F)F)c1 [(35), methyl 2-[α-{[(α-methyl-3-trifluoromethylbenzyl)imino]oxy}-o-tolyl]glyoxylate O-methyloxime]",good synergistic effect,good synergistic effect,,good synergistic effect,marked synergistic effect,markedly increased activity,good synergistic effect,,markedly increased activity
"COC=C(C(=O)OC)c1ccccc1CON=C(c1ccc(Cl)cc1)C1CC1 [(36), methyl 3-methoxy-2-[α-{[(α-cyclopropyl-4-chlorobenzyl)imino]oxy}-o-tolyl]acrylate]",,good synergistic effect,,,,markedly increased activity,good synergistic effect,markedly increased activity,markedly increased activity
CON=C(C(=O)OC)c1ccccc1CON=C(c1ccc(C(F)(F)F)cc1)C1CC1 [(37)],,good synergistic effect,,,,,,,
"CON=C(C(=O)OC)c1ccccc1CON=C(c1ccc(OC(F)(F)F)cc1)C1CC1 [(38), methyl 2-[α-{[(α-cyclopropyl-4-trifluoromethoxybenzyl)imino]oxy}-o-tolyl]glyoxylate O-methyloxime]",,,good synergistic effect,,,,,markedly increased activity,
